Measured values reported in patent publication US20100137449A1, “SUBSTITUTED 1,3-CYCLOPENTADIONE MULTI-TARGET PROTEIN KINASE MODULATORS OF CANCER, ANGIOGENESIS AND THE INFLAMMATORY PATHWAYS ASSOCIATED THEREWITH” (METAPROTEOMICS, LLC, priority 2007, published 2010).

Columns and labels:
Test in all cases: KinaseProfiler Assay
[1] = biological target: IR(h) (Homo sapiens, UniProt P06213)
[2] = biological target: T1, PKG1α(h) (Homo sapiens, UniProt Q13976)
T1 sequence (Q13976 1-671): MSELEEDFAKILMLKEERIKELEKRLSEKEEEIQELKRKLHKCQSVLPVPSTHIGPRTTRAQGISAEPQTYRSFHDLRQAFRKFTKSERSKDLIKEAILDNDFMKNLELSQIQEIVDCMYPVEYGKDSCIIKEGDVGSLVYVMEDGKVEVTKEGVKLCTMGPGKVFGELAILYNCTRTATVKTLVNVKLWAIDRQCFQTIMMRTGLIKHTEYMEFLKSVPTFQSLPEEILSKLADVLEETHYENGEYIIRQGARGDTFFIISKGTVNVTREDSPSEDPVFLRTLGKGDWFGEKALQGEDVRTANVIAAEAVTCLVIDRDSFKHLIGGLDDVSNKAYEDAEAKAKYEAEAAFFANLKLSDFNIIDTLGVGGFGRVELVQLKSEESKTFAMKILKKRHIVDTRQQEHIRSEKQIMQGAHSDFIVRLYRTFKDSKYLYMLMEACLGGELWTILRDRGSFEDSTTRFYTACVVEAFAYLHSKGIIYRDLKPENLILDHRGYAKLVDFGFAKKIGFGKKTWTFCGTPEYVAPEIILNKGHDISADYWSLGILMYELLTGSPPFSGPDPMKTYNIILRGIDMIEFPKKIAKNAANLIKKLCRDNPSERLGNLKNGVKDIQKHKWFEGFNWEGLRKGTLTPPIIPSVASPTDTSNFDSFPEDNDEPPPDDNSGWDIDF

[3] = biological target: Hck(h) (Homo sapiens, UniProt P08631)
[4] = biological target: Abl(Q252H)(h) (Homo sapiens, UniProt P00519, Q252H)
[5] = biological target: T2, NEK11(h) (Homo sapiens, UniProt Q8NG66)
T2 sequence (Q8NG66 1-645): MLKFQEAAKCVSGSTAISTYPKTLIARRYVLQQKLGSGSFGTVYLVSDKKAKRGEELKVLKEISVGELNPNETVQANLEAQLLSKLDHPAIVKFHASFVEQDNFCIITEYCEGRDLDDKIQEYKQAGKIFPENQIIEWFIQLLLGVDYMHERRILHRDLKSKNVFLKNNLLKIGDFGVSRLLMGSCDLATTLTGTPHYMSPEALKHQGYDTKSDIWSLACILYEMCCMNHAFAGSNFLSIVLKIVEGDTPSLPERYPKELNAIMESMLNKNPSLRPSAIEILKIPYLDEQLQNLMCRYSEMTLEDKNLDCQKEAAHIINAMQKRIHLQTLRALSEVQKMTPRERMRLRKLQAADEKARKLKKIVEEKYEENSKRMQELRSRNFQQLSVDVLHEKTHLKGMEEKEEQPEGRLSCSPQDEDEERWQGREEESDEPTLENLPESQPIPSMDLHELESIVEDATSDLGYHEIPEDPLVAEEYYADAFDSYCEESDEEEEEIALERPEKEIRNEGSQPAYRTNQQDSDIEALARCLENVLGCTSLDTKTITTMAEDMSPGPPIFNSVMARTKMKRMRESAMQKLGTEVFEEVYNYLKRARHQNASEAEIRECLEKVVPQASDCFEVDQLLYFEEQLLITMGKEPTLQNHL

[6] = biological target: CK1γ1(h) (Homo sapiens, UniProt Q9HCP0)
[7] = biological target: CDK6/cydinD3(h) (Homo sapiens, UniProt Q00534)
[8] = biological target: T3, MKK7β(h) (Homo sapiens, UniProt O14733)
T3 sequence (O14733 1-419): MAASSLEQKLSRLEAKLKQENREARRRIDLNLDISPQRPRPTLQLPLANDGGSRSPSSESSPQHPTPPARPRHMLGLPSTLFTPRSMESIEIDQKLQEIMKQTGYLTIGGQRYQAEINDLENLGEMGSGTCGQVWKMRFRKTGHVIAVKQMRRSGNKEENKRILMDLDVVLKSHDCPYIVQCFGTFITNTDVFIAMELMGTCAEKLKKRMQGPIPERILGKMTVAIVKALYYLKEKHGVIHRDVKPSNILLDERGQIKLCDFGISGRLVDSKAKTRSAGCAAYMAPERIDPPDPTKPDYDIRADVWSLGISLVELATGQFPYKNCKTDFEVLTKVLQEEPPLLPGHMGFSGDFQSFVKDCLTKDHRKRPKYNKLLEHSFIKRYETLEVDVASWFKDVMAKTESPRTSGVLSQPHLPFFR

[9] = biological target: Lck(h) (Homo sapiens, UniProt P06239)
Lck(h), sequence (P06239 whole entry): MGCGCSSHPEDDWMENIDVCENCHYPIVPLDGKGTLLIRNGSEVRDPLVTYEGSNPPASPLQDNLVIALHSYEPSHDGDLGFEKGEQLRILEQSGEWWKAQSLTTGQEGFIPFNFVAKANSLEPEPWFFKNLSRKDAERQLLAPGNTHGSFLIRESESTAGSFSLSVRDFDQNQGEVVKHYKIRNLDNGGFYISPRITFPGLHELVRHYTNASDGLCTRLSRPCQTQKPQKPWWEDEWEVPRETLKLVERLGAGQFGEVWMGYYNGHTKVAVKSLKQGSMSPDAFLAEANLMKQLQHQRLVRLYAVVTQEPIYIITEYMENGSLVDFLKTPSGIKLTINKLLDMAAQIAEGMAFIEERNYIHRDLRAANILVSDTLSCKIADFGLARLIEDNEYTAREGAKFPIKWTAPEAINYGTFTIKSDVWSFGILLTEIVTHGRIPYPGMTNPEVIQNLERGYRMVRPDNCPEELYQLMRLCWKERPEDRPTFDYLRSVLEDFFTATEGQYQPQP

CK1γ1(h), sequence (Q9HCP0 whole entry): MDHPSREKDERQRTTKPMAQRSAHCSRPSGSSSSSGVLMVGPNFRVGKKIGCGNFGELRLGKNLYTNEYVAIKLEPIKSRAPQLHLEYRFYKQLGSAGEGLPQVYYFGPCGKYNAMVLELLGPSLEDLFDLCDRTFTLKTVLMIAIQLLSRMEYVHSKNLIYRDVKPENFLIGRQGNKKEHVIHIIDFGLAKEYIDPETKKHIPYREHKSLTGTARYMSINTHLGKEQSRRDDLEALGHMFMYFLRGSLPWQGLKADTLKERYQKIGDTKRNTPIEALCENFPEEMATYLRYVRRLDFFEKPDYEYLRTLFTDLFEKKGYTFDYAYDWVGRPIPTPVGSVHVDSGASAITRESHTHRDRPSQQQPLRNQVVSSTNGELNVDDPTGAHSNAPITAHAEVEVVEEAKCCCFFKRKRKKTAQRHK
CDK6/cydinD3(h), sequence (Q00534 whole entry): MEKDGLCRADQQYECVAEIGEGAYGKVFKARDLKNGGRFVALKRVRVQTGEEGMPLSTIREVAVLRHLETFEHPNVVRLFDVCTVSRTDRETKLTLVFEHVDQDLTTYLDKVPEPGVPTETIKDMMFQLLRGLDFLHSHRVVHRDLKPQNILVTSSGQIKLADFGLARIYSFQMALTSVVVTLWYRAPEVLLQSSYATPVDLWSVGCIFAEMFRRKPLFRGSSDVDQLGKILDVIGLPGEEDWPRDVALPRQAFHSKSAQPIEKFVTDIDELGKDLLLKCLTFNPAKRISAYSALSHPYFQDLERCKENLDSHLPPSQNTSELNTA
CDK6/cydinD3(h), sequence (P30281 whole entry partner): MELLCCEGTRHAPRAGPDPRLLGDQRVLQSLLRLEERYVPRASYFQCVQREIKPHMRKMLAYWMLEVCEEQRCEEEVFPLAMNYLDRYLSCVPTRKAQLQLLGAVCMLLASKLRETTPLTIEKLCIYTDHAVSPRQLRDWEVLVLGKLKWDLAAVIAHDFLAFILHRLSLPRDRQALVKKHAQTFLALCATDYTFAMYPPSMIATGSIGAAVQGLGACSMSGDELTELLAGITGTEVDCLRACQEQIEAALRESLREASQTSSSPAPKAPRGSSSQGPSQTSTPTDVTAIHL
IR(h), sequence (P06213 28-1382): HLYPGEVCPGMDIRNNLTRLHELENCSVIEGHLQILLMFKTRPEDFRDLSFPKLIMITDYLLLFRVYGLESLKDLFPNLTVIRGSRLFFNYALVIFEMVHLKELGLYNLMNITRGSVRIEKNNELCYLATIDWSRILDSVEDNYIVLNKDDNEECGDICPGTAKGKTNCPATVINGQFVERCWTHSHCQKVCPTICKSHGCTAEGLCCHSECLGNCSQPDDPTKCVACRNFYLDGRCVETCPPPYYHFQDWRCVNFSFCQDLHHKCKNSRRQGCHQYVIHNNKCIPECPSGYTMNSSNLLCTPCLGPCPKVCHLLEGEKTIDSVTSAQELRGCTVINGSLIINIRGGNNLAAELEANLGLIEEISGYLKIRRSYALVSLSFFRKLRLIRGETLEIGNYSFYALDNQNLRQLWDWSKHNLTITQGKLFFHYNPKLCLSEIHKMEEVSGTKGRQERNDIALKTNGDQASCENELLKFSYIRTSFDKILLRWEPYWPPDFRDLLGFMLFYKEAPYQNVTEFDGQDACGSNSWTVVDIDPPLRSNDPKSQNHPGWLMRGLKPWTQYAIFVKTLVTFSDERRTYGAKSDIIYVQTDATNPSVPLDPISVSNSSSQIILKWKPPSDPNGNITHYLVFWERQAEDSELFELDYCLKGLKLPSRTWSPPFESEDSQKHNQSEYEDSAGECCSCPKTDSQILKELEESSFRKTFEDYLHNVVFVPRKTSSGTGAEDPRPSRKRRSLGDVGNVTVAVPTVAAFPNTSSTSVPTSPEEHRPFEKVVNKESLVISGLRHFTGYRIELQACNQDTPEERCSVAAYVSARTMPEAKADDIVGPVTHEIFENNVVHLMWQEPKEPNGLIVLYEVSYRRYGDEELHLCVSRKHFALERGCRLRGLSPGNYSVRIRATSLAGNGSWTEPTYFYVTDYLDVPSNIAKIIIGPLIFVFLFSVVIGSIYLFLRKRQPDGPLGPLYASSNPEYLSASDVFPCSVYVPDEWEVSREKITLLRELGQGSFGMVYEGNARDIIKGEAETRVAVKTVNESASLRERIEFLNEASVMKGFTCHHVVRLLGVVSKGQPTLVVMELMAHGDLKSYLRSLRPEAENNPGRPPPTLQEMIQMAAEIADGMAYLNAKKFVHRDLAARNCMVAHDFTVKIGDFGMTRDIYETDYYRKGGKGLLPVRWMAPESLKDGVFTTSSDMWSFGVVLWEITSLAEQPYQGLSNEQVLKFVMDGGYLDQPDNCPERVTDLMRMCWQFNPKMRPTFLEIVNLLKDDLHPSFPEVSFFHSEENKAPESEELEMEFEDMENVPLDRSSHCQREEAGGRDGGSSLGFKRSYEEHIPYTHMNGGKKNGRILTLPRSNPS
Hck(h), sequence (P08631 whole entry): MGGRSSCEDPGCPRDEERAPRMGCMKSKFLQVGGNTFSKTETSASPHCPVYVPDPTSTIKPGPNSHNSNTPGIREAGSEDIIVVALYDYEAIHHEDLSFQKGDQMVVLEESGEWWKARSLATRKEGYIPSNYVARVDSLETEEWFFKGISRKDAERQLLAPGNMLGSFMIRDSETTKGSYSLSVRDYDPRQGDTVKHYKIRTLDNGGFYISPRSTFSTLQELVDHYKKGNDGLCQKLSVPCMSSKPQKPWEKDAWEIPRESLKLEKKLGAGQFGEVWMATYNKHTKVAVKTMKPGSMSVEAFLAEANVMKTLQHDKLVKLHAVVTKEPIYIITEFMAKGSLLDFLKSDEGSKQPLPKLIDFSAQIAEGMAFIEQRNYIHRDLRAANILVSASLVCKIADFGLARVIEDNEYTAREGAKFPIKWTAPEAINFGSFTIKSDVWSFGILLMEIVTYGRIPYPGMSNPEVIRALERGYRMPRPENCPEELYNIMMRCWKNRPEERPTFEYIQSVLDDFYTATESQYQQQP

## CC(C)CCC(=O)[C@]1(O)C(O)=C(C(=O)C(C)C)C(=O)[C@H]1CCC(C)C [TH2, tetrahydroiso-cohumulone]
[1]; 1 μg/ml
  kinase inhibition: 96% of control
[1]; 5 μg/ml
  kinase inhibition: 100% of control
[1]; 25 μg/ml
  kinase inhibition: 80% of control
[1]; 50 μg/ml
  kinase inhibition: 75% of control
[1]; 100 μg/ml
  kinase inhibition: 79% of control
[2]; 1 μg/ml
  kinase inhibition: 103% of control
[2]; 5 μg/ml
  kinase inhibition: 112% of control
[2]; 25 μg/ml
  kinase inhibition: 97% of control
[2]; 50 μg/ml
  kinase inhibition: 92% of control
[2]; 100 μg/ml
  kinase inhibition: 73% of control
[3]; 1 μg/ml
  kinase inhibition: 103% of control
[3]; 5 μg/ml
  kinase inhibition: 88% of control
[3]; 25 μg/ml
  kinase inhibition: 76% of control
[3]; 50 μg/ml
  kinase inhibition: 62% of control
[3]; 100 μg/ml
  kinase inhibition: 42% of control
[4]; 1 μg/ml
  kinase inhibition: 96% of control
[4]; 5 μg/ml
  kinase inhibition: 96% of control
[4]; 25 μg/ml
  kinase inhibition: 66% of control
[4]; 50 μg/ml
  kinase inhibition: 68% of control
[4]; 100 μg/ml
  kinase inhibition: 47% of control
[5]; 1 μg/ml
  kinase inhibition: 97% of control
[5]; 5 μg/ml
  kinase inhibition: 106% of control
[5]; 25 μg/ml
  kinase inhibition: 96% of control
[5]; 50 μg/ml
  kinase inhibition: 75% of control
[5]; 100 μg/ml
  kinase inhibition: 51% of control
[6]; 1 μg/ml
  kinase inhibition: 100% of control
[6]; 5 μg/ml
  kinase inhibition: 101% of control
[6]; 25 μg/ml
  kinase inhibition: 88% of control
[6]; 50 μg/ml
  kinase inhibition: 73% of control
[6]; 100 μg/ml
  kinase inhibition: 48% of control
[7]; 1 μg/ml
  kinase inhibition: 120% of control
[7]; 5 μg/ml
  kinase inhibition: 109% of control
[7]; 25 μg/ml
  kinase inhibition: 117% of control
[7]; 50 μg/ml
  kinase inhibition: 105% of control
[7]; 100 μg/ml
  kinase inhibition: 92% of control
[8]; 1 μg/ml
  kinase inhibition: 100% of control
[8]; 5 μg/ml
  kinase inhibition: 110% of control
[8]; 25 μg/ml
  kinase inhibition: 111% of control
[8]; 50 μg/ml
  kinase inhibition: 82% of control
[8]; 100 μg/ml
  kinase inhibition: 72% of control
[9]; 1 μg/ml
  kinase inhibition: 106% of control
[9]; 5 μg/ml
  kinase inhibition: 111% of control
[9]; 25 μg/ml
  kinase inhibition: 86% of control
[9]; 50 μg/ml
  kinase inhibition: 83% of control
[9]; 100 μg/ml
  kinase inhibition: 78% of control
